Measured values from patent US6548528B2, “Pesticidal pyrazoles and derivatives” (Rhone-Poulenc Agro, priority 1996, dated 2003).

Tested on: termites
Assay: Soil treatment at discrete locations around a house to be built, protection against termites (Example 1)
Assay type: in vivo
Details: for attack of termite observed: 1 year after building the house, 0.01 g/m^2 of soil at future corners and wall crossings, treated area 5 m per 10 m of perimeter
From the text: In an area where termites are passing or traveling, plans for a house are made. The plans are that the house will have a rectangular shape of 15 m×10 m with 4 rooms at the lower level.
Compound (A) is actually put on the soil at a rate of 0.01 g/m^2 of the soil at the location of the future corners of the house and at the crossing of the walls corresponding to each room according to the following scheme: [drawing 2]
The treated area represents 5 m per 10 m of perimeter.

Structure (SMILES): N#Cc1nn(-c2c(Cl)cc(C(F)(F)F)cc2Cl)c(N)c1[S+]([O-])C(F)(F)F (stereo not drawn) [Compound (A), 5-amino 1-(2,6-dichloro 4-trifluoromethylphenyl) 4-trifluoromethylsulfinyl 3-cyanopyrazole]
- attack of termite observed: no attack of termite

Structure (SMILES): CCOP(=S)(OCC)Oc1nc(Cl)c(Cl)cc1Cl [chlorpyrifos]
- attack of termite observed: strong attack of termites
- holes in parts of the walls, % of the volume (one year after building the house, similar experiment to Example 1): more than 10%
